Experimental data as given in publication PMC10675777, “Experimental Evaluation of the Hypersensitivity Reactions of a New Glycopeptide Antibiotic Flavancin in Animal Models” (Pharmaceuticals, 2023).
Where a name gives a salt, the structure may show the parent alone. Read-outs that look alike come from different tables or passages of the source.

Key:
patients = patients treated with vancomycin; cited from earlier work
Method: This reaction is typically associated with intravenous administration of doses exceeding 1000 mg and administrated at a rate of less than 60 min [5]. […] More recently, the mechanism behind some IgE-independent reactions, previously referred to as pseudo ...

concanavalin A = conditions: for The Mass of the Hind Leg Foot, Con A, Me, Mean ± SD / The Mass of the Hind Leg Foot, Saline, Mc, Mean ± SD: female CBA mice, n = 10, weighed 1 h later; for The Mass of the Hind Leg Foot, Con A, Me, Mean ± SD: Con A 0.5% into pad 1 h post-injection; for The Mass of the Hind Leg Foot, Saline, Mc, Mean ± SD: saline into contralateral pad; for RI (reaction index to concanavalin A) / Relative Increase Me Over Mc: mice; for Relative Increase Me Over Mc: (Me − Mc)/Mc × 100%
Method: Its administration causes nonimmune activation of histamine release and inflammatory edema at the injection site.
The experiment was carried out in accordance with «Guidelines on the assessment of allergic properties of drugs» [30]. Healthy female CBA mice weighing 20–24 g were divided into five groups, in cages of 10. […] 10 mL/kg of 5% glucose solution was administered to the animals of control group. One hour post-injection, 0.5% Con A in isotonic sodium chloride solution (0.01 mL/10 g body mass) was injected into the pad of the hind legs and the same volume of isotonic solution of sodium chloride was injected into the contralateral extremity of mice in the experimental and control groups. One hour later, the mice were euthanized. The hind legs were amputated at the hock joint and weighed. Relative increase Me over Mc in each group was calculated using the formula (Me − Mc)/Mc × 100%, where Me is the mass of the foot injected with Con A and Mc is the mass of the foot injected with saline solution. The RI of the group of animals receiving the drug, exceeding 20%, is considered significant and indicates an inflammatory reaction to concanavalin A.

[1] = parameters: method as in PMID 1693055; conditions: cited from earlier work
guinea pigs [2] = assay: General anaphylaxis reaction (anaphylactic shock)
Method: In order to determine the anaphylactogenic properties of flavancin, we selected two technically simple and easily reproducible tests: general anaphylaxis reaction and active skin anaphylaxis.
Adult guinea pigs weighing 300–350 g were randomized into three groups (n = 10). […] These doses were determined based on the effectiveness in mice (ED100), with adjustments made using the coefficient of the animals’ body surface [28]. Saline was used as the control in the experiment. As for the reference agent, cattle serum was employed, with a dose of 0.1 mL for sensitizing doses and 0.5 mL for the resolving doses. The sensitizing doses were following a scheme: the first injection was given subcutaneously, while the subsequent two injections were administrated intramuscularly, with a 48 h interval between each injection. The resolving dose was administered intracardially 21 days after the last day of sensitization.

[3] = rat, in vivo, iv, 6.25 mg/kg
Method: Experimental animals were divided into groups of six at each time point. Flavancin was administered intravenously into the tail vein at a single dose of 6.25 mg/kg (5 TD). Control rats were injected with glucose solution in the same volume. Blood was collected 5, 15, 30 min and 1 h after injection into heparinized plastic tubes. Blood samples were centrifuged for 20 min at 1500 rpm. The supernatant was poured into tubes and stored at −20 °C until chromatographic analysis. Quantitative determination of flavancin in blood samples was carried out by high-performance liquid chromatography method (HPLC) with fluorimetric detection.
The method is based on the chromatography of specially prepared samples using a high-performance liquid chromatograph with a fluorescence detector and a reversed-phase column.
Gradient separation was performed at 40 °C on a column Jupiter C18 (250 mm × 4.6 mm, particle size 5 microns; Security Guard Cartridge, Phenomenex, Torrance, CA, USA). […] Detection was carried out using a fluorescence detector (Waters 2475, Waters Associates, Framingham, MA, USA) (excitation—240 nm, emission—330 nm). […] The lower limit of the quantitative determination of flavancin was 0.8 µg/mL. […]
Eight hundred µL of supernatant was replaced in 1.5 mL Eppendorf plastic tubes. […] The supernatant was analyzed by HPLC. […]

guinea pigs [4] = conditions: Evans blue
Method: In the study of active skin anaphylaxis, the sensitizing doses of flavancin were administered following the same scheme as described previously. The resolving dose, which consisted of a 0.1% solution of the dosage form of the drug in a 5% glucose solution with a volume of 0.05 mL per guinea pig, was administered intradermally 21 days after the last day of sensitization into a previously […] area of the flank skin. After 30 min, both the experimental and control groups of animals were intracardially injected with 0.5 mL of 1% Evans blue solution. Thirty minutes later, the animals were euthanized using ether anesthesia. The skin where the drug was intradermally administrated was then separated, and the diameter of the blue spot was measured and recorded. The collected quantitative data were statistically analyzed using a significance level of p < 0.05.

histamine = assay: Histamine in blood plasma after intravenous administration (Histamine-ELISA); conditions: for Histamine Level in plasma: female CBA mice, n = 10, single i.v., equitoxic doses (~MTD): vancomycin 300 mg/kg, flavancin 100 mg/kg, ELISA
Method: The amount of histamine in the blood plasma of mice was detected 0.5, 1.5 and 3 min after a single intravenous administration of drugs.
Female CBA mice weighing 18–20 g were divided into groups of 10 animals each. Flavancin was dissolved in 5% glucose and administrated via the tail vein to the mice at a dose equivalent to one TD (2.5 mg/kg) or MTD (100 mg/kg). […] Untreated animals were used as the control group.
The animals were euthanized after 0.5, 1 and 1.5 min in an experiment using equiterapeutic doses and 0.5, 1.5 and 3 min for an experiment with the use of equitoxic doses, and the blood samples were collected after the drug administration. Next, 500 µL of whole blood, which had been drawn into 10 µL of heparin (30–50 IU) was centrifuged for 20 min at 2000 rpm. To perform the histamine analyses, 20 µL of plasma was mixed with dilutions of saline at ratios of 1:10 and 1:20. The amount of histamine was determined using an automatic biochemical and enzyme immunoassay analyzer (ChemWell, Awareness Technology, Inc., Palm City, FL, USA). The histamine detection was performed using the Histamine-ELISA reagent kit (Tecan Group Company, Männedorf, Switzerland).

**Q.** Which “Occurrence of Red Man Syndrome (non-IgE-mediated hypersensitivity)” value (patients) does the source give for vancomycin [reference compound] here?
**A.** 4–47%

**Q.** And the “The Mass of the Hind Leg Foot, Con A, Me, Mean ± SD” value (“The Mass … Me, Mean ± SD” for short) (concanavalin A; drug i.v. at MTD)?
**A.** 149.4 ± 3.0 mg

**Q.** And the “The Mass of the Hind Leg Foot, Saline, Mc, Mean ± SD” value (shortened to “The Mass … Mc, Mean ± SD”) (concanavalin A; drug i.v. at MTD)?
**A.** 131.8 ± 3.6 mg

**Q.** What about the “The Mass … Me, Mean ± SD” value (concanavalin A; drug i.v. at TD) of the same compound?
**A.** 158.1 ± 3.8 mg

**Q.** And the “The Mass … Mc, Mean ± SD” value (concanavalin A; drug i.v. at TD)?
**A.** 140.4 ± 2.3 mg

**Q.** And the “Vancomycin concentration in the blood after infusion” value ([1]; 60-min intravenous infusion at a therapeutic dose, before the decrease)?
**A.** 51.1 ± 9.2

**Q.** And the “Vancomycin concentration in the blood 1 h after infusion” value ([1]; 1 h after a 60-min intravenous infusion at a therapeutic dose)?
**A.** 24.9 ± 2.9

**Q.** For `CN[C@H](CC(C)C)C(=O)N[C@H]1C(=O)N[C@@H](CC(N)=O)C(=O)N[C@H]2C(=O)N[C@H]3C(=O)N[C@H](C(=O)N[C@H](C(=O)NCCNCc4ccccc4F)c4cc(O)cc(O)c4-c4cc3ccc4O)[C@H](O[C@H]3C[C@](C)(N)[C@@H](O)[C@H](C)O3)c3ccc(cc3)Oc3cc2cc(c3O[C@@H]2O[C@H](CO)[C@@H](O)[C@H](O)[C@H]2O[C@H]2C[C@](C)(N)[C@@H](O)[C@H](C)O2)Oc2ccc(cc2Cl)[C@H]1O` [flavancin, N-(2((2-fluorobenzyl)amino)ethyl)amide of eremomycin hydrochloride], which “The Mass … Me, Mean ± SD” value (concanavalin A; drug i.v. at MTD) is on record?
**A.** 151.5 ± 3.0 mg

**Q.** What about the “The Mass … Mc, Mean ± SD” value (concanavalin A; drug i.v. at MTD) of the same compound?
**A.** 139.3 ± 2.9 mg

**Q.** And the “The Mass … Me, Mean ± SD” value (concanavalin A; drug i.v. at TD)?
**A.** 154.3 ± 2.1 mg

**Q.** And the “The Mass … Mc, Mean ± SD” value (concanavalin A; drug i.v. at TD)?
**A.** 142.1 ± 2.0 mg

**Q.** And the “RI (reaction index to concanavalin A)” value (concanavalin A; both doses studied (TD and MTD), below 20% means no pseudoallergic reaction)?
**A.** less than 20%

**Q.** And the “Relative Increase Me Over Mc” value (concanavalin A; drug i.v. at MTD)?
**A.** 8.8%

**Q.** What about the “RI (reaction index to concanavalin A)” value (concanavalin A; drug i.v. at MTD, RI exceeding 20% is significant) of the same compound?
**A.** 7.3%

**Q.** And the “Relative Increase Me Over Mc” value (concanavalin A; drug i.v. at TD)?
**A.** 8.5%

**Q.** And the “RI (reaction index to concanavalin A)” value (concanavalin A; drug i.v. at TD, RI exceeding 20% is significant)?
**A.** 3.7%

**Q.** And the “Effect (general anaphylaxis reaction, anaphylactic shock)” value (“Effect” for short) (guinea pigs [2]; n = 10, sensitized with saline solution 1.0 mL x3, resolving flavancin 3.0 mg/kg intracardially)?
**A.** no

**Q.** And the “Effect” value (guinea pigs [2]; n = 10, sensitizing 0.5 mg/kg (1TD) subcutaneous then twice intramuscularly, 48 h interval, resolving 3.0 mg/kg (6TD) intracardially 21 days after sensitization)?
**A.** does not induce anaphylactic shock and no

**Q.** What about the “Effect” value (guinea pigs [2]; n = 10, sensitizing 1.5 mg/kg (3TD) subcutaneous then twice intramuscularly, 48 h interval, resolving 3.0 mg/kg (6TD) intracardially 21 days after sensitization) of the same compound?
**A.** does not induce anaphylactic shock and no

**Q.** What about the level at 1 h [3] of the same compound?
**A.** 5000 ng/mL

**Q.** And the “Blue Spot Diameter” value (guinea pigs [4]; sensitizing 0.5 mg/kg x3, resolving 0.05 mL per pig of 0.1% solution 21 days after sensitization)?
**A.** 2.3 ± 0.6 cm

**Q.** And the “Blue Spot Diameter” value (guinea pigs [4]; sensitizing 1.5 mg/kg x3, resolving 0.05 mL per pig of 0.1% solution 21 days after sensitization)?
**A.** 2.4 ± 0.5 cm

**Q.** What about the “Histamine Level in plasma” value (histamine; 0.5 min) of the same compound?
**A.** 549.9 ± 92.6 µg/L

**Q.** And the “Histamine Level in plasma” value (histamine; 1.5 min)?
**A.** 796.2 ± 56.3 µg/L

**Q.** What about the “Histamine Level in plasma” value (histamine; 3 min) of the same compound?
**A.** 297.7 ± 54.9 µg/L

**Q.** What about the “Histamine level in the blood compared to vancomycin” value (histamine; mice, equivalent (therapeutic) dose, after 30 s) of the same compound?
**A.** three times lower
